{
  "source": "patent US20260184706A1",
  "about": "“PHENYLSULFONAMIDE DERIVATIVES, PREPARATION METHOD THEREFOR, AND PHARMACEUTICAL COMPOSITION FOR PREVENTION OR TREATMENT OF CANCER CONTAINING SAME AS ACTIVE INGREDIENT” (Korea Research Institute of Chemical Technology, priority 2022, published 2026)",
  "key": {"phosphorylated GCN2": {"molecular_target": "T1, phosphorylated GCN2 (Homo sapiens, UniProt Q9P2K8)", "T1 construct": "endogenous in cells; host or cells: HT-1080", "T1 sequence (Q9P2K8 whole entry)": "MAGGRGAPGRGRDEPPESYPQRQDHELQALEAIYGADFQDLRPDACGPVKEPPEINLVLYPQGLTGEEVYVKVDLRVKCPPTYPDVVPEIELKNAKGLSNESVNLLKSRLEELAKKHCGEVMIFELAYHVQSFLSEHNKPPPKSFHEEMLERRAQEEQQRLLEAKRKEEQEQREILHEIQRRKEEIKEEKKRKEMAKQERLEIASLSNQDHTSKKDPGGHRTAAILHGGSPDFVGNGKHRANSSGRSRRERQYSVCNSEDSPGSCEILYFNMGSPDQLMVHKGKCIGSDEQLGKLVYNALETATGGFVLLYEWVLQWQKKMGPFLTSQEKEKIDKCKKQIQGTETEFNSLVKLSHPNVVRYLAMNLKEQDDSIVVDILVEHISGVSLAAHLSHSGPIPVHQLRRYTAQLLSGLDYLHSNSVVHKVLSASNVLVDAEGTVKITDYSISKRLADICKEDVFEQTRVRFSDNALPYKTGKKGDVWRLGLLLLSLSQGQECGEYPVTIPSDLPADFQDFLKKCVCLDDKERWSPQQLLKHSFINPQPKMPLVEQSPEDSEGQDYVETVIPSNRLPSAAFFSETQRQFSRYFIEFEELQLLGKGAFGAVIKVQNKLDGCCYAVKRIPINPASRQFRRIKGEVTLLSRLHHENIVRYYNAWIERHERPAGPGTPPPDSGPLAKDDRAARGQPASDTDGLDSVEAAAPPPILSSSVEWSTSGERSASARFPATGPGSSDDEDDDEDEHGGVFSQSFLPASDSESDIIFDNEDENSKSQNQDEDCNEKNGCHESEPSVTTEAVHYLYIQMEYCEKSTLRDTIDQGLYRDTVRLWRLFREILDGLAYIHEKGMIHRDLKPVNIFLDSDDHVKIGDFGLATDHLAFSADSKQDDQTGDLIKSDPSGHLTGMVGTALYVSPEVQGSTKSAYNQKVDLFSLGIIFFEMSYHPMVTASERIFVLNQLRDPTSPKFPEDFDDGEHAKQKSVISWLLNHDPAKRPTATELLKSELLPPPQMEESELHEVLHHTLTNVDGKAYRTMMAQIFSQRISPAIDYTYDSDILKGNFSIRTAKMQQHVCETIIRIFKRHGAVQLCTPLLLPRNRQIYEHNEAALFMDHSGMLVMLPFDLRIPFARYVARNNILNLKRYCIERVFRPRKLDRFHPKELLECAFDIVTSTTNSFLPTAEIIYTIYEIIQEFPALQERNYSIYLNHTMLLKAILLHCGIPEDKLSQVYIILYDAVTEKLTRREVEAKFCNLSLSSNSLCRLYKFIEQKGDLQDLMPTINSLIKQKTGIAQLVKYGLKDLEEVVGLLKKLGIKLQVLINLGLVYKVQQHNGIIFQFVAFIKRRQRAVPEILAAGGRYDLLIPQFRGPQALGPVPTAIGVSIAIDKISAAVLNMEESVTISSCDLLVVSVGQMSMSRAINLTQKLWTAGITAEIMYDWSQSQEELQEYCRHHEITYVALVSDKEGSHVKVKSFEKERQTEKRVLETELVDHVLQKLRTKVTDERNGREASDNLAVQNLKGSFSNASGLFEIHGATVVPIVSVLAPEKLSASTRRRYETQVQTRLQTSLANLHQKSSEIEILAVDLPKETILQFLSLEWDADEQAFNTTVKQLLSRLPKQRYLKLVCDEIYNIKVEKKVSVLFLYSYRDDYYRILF", "assay": "Inhibition of phosphorylated GCN2 under amino acid deficiency in HT-1080 cells, Western blot", "format": "cell-based", "conditions": "compound 50 nM, 24 hours; for Phospho-GCN2 inhibition: symbols ◯ / X not defined", "experimental": "(§1) <Experimental Example 5> Evaluation of Inhibitory Efficacy of ISR-Related Kinase GCN2 Under Amino Acid Deficiency Condition Using Western Blot\n(§2) HT-1080 cells, a human fibrosarcoma cell line, were cultured in RPMI-1640 medium supplemented with 10% FBS, penicillin (penicillin; 100 IU/ml), and streptomycin (streptomycin; 100 μg/ml). Cells (1×10^6 cells/ml) were seeded onto 100 mm plates (polypropylene tissue culture plate) and incubated for 24 hours in a 37° C., 5% CO2 incubator before being used for experiments.\n(§3) The following method was used to achieve amino acid deficiency conditions in cells. After 24 hours of cell culture, the cells were cultured in amino acids and L-glutamine-free RPMI-1640 medium supplemented with 10% FBS, penicillin (100 IU/ml), and streptomycin (100 μg/ml). After 24 hours of cell culture in RPMI-1640 without amino acids and L-glutamine, the compound prepared at a concentration of 50 nM was dispensed onto each plate and cultured for 24 hours in a 37° C., 5% CO2 incubator.\n(§4) In order to measure the signal transduction inhibitory efficacy of GCN among the ISR-related kinases according to the present invention, the following experiment was performed using SDS-PAGE. The fibrosarcoma cell line HT-1080 cells cultured on plates as described above were washed with PBS after removing the culture medium. After removing PBS, the cells were lysed by adding a radio-immunoprecipitation assay buffer (RIPA buffer) containing 50 mM Tris (pH 7.4), 150 mM NaCl, 1% NP-40, 0.5% sodium deoxycholate, 2 mM sodium fluoride, 2 mM EDTA, 0.1% SDS, and a protease/phosphatase inhibitor cocktail to the plate. After centrifugation at 4° C., 13,000×g for 15 minutes, the protein in the upper layer was collected, and the protein concentration was measured at 562 nm using BCA (bicinchoninc acid) reagent, and the amount of protein in all samples was prepared at 20-50 μg.\n(§5) After making the total volume the same using the sample buffer and RIPA buffer, it was heated at 97° C. for 5 minutes. Then, electrophoresis was performed on 8% or 12% SDS-PAGE at 80 V for 30 minutes and at 160 V for 1 hour and 30 minutes. After electrophoresis, the SDS-PAGE gel was transferred to an NC membrane (nitrocellulose membrane) at 90 V for 2 hours. The NC membrane was placed in TBST (tris buffer saline tween-20; 20 mM tris, 137 mM sodium chloride, 0.1% tween-20, pH 8.0) containing 5% non-fat skim milk, placed on a shaker, and reacted at room temperature for 1 hour.\n(§6) Each primary antibody was diluted in TBST containing 5% non-fat skim milk, poured onto the NC membrane, and reacted at 4° C. for 24 hours. The membrane was washed three times for 10 minutes each with TBST. The secondary antibodies (anti-rabbit IgG and anti-mouse IgG labeled with horseradish peroxidase (HRP)) were diluted in TBST containing 5% non-fat skim milk and reacted with the membrane at room temperature for 1 hour. Upon completion of the reaction, the membrane was washed three times with TBST for 10 minutes each. Protein expression bands were detected by a chemiluminescence image analyzer (Image Quant LAS 500) after the ECL solution was reacted with the NC membrane.\nGCN2, a key kinase of the integrated stress response (ISR), is phosphorylated in response to amino acid deficiency."}, "[1]": {"molecular_target": "recombinant human GCN2 protein (Homo sapiens, UniProt Q9P2K8)", "sequence (Q9P2K8 whole entry)": "as above", "assay": "General control nonderepressible 2 (GCN2) inhibitory capacity, 33P-ATP filter assay", "format": "biochemical", "conditions": "recombinant human GCN2, 70 uM [gamma-33P-ATP], 40 minutes, room temperature"}, "ATF4": {"system": "ATF4", "assay": "Inhibition of ATF4, downstream factor of ISR, in HT-1080 cells, Western blot (FIG. 1)", "format": "cell-based, human", "conditions": "amino acid deficiency, compound 50 nM, 24 hours", "experimental": "as §1, §2, §3, §4, §5, §6\nFIG. 1 is a set of photographs confirming the mechanism proteins that react upon ISR activation, wherein the numbers correspond to example numbers of the present invention. […] They are also known to have an effect on increasing the expression of CHOP (GADD153), the most downstream factor of the mechanism. […] Thus, in addition to the activation of ISR by amino acid deficiency, a significant effect can be expected on the mechanism of inhibition of the activity of PERK, an ISR-related kinase, due to endoplasmic reticulum stress response."}, "[2]": {"molecular_target": "recombinant human PKR protein (Homo sapiens, UniProt P19525)", "sequence (P19525 whole entry)": "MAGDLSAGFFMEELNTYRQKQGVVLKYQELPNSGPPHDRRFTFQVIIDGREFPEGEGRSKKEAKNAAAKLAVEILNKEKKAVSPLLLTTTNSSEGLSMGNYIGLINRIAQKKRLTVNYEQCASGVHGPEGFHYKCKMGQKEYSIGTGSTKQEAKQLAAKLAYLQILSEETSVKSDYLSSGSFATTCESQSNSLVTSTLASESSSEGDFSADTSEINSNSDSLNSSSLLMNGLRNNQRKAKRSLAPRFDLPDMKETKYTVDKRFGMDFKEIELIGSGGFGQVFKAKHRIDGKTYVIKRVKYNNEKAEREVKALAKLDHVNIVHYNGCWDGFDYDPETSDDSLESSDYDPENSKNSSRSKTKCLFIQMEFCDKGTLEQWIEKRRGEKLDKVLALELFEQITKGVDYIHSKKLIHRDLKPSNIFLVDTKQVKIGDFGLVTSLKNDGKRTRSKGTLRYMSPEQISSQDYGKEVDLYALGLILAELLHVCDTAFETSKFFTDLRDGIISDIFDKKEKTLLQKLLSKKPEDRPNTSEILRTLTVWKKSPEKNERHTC", "assay": "Protein kinase R (PKR) inhibitory capacity, 33P-ATP filter assay", "format": "biochemical", "conditions": "15 uM [gamma-33P-ATP], 40 minutes, room temperature", "experimental": "<Experimental Example 4> Evaluation of Protein Kinase R (PKR) Inhibitory Capacity\n(§7) A recombinant human PKR protein was mixed with the compound in a reaction solution (8 mM MOPS pH 7.0, 0.2 mM EDTA, 20 uM RSRSRSRSRSRSRSR, 10 mM Magnesium acetate, 15 uM [gamma-33P-ATP]) and reacted at room temperature for 40 minutes. Then, the reaction was terminated by adding phosphoric acid (0.5%) to the reaction mixture, and 10 ul of the reaction solution was dropped onto a P30 filter. The filter was washed four times in a 0.425% phosphoric acid solution for 4 minutes, then washed once more in methanol, dried, and the PKR activity was measured by scintillation counting. […] The compound was diluted by 1/3 from the highest concentration of 1 uM and treated with a total of 9 concentrations to evaluate the degree of inhibition."}, "[3]": {"molecular_target": "T2, recombinant human PERK protein (Homo sapiens, UniProt Q9NZJ5)", "T2 sequence (Q9NZJ5 30-1116)": "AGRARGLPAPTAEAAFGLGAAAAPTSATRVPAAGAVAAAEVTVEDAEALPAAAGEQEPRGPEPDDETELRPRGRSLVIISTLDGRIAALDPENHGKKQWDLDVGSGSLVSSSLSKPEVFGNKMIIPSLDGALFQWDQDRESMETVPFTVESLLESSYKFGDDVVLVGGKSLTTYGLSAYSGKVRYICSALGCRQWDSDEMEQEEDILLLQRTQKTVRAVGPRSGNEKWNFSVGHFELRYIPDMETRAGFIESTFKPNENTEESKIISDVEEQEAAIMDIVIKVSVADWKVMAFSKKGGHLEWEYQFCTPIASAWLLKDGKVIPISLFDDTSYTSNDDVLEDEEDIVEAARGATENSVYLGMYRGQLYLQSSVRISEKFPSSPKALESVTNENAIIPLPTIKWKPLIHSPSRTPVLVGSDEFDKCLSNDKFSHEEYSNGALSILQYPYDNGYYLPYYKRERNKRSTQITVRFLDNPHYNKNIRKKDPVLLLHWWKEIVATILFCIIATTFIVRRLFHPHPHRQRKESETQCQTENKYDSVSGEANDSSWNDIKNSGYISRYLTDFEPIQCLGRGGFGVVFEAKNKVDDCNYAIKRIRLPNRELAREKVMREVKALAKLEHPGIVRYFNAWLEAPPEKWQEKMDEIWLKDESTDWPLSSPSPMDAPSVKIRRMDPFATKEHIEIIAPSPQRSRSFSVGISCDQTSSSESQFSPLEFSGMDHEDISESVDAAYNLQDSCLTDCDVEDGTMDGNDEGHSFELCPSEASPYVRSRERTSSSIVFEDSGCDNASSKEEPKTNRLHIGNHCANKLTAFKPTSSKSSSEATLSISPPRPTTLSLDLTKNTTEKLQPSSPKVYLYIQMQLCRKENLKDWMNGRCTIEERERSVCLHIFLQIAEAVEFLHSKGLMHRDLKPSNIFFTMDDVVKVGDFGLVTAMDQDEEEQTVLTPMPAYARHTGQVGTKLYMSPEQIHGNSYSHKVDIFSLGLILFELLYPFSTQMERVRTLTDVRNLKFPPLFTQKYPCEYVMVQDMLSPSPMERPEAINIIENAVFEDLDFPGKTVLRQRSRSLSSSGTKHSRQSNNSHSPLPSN", "assay": "PKR-like endoplasmic reticulum kinase (PERK) inhibitory capacity, 33P-ATP filter assay", "format": "biochemical", "conditions": "15 uM [gamma-33P-ATP], 40 minutes, room temperature", "experimental": "<Experimental Example 1> Evaluation of PKR-Like Endoplasmic Reticulum Kinase (PERK) Inhibitory Capacity\nas §7, with “PERK” for “PKR”, “300” for “20”"}, "[4]": {"molecular_target": "recombinant human HRI protein (Homo sapiens, UniProt Q9BQI3)", "sequence (Q9BQI3 whole entry)": "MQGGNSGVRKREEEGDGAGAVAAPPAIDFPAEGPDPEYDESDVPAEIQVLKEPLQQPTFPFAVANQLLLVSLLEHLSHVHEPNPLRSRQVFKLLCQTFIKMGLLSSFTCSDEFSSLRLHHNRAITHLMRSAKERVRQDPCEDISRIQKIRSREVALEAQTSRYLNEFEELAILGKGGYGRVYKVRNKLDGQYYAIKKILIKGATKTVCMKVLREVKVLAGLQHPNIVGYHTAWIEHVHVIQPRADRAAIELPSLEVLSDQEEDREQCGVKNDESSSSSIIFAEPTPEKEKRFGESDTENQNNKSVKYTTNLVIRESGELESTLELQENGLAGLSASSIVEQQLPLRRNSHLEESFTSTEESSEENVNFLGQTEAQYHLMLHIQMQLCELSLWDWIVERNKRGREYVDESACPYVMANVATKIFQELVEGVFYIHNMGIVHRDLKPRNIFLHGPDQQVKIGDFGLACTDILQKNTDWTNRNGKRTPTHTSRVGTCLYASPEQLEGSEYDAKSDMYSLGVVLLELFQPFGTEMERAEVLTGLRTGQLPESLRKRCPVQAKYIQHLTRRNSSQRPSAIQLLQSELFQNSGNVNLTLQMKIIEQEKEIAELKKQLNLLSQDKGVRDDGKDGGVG", "assay": "eIF2-alpha kinase heme-regulated inhibitor (HRI) inhibitory capacity, 33P-ATP filter assay", "format": "biochemical", "conditions": "45 uM [gamma-33P-ATP], 40 minutes, room temperature", "experimental": "<Experimental Example 3> Evaluation of eIF2-Alpha Kinase Heme-Regulated Inhibitor (HRI) Inhibitory Capacity\nA recombinant human HRI protein was mixed with the compound in a reaction solution (50 mM Tris/HCl pH 7.5, 0.04 mM EDTA, 300 uM RSRSRSRSRSRSRSR, 10 mM Magnesium acetate, 45 uM [gamma-33P-ATP]) and reacted at room temperature for 40 minutes. Then, the reaction was terminated by adding phosphoric acid (0.5%) to the reaction mixture, and […] of the reaction solution was dropped onto a P30 filter. The filter was washed four times in a 0.425% phosphoric acid solution for 4 minutes, then […] washed once more in methanol, dried, and the HRI activity was measured by scintillation counting. […] The compound was diluted by 1/3 from the highest concentration of 1 uM and treated with a total of 9 concentrations to evaluate the degree of inhibition."}},
  "data": [
    {"compound": "Cn1c(=O)n(-c2c(F)ccc(NS(=O)(=O)c3cccc4ccccc34)c2F)c(=O)c2cnc(N)nc21", "note": "[Example 43, N-(3-(7-amino-1-methyl-2,4-dioxo-1,4-dihydropyrimido[4,5-d]pyrimidin-3(2H)-yl)-2,4-difluorophenyl)naphthalene-1-sulfonamide]", "values": [
      {"measurement": "inhibitory effect on the phosphorylated GCN2", "setting": "phosphorylated GCN2", "value": "excellent inhibitory effects"},
      {"measurement": "Phospho-GCN2 inhibition", "setting": "phosphorylated GCN2", "value": "◯"},
      {"measurement": "IC50", "setting": "[1]", "value": "100 to 300", "unit": "nM"},
      {"measurement": "inhibitory effect on ATF4 (FIG. 1)", "setting": "ATF4", "value": "excellent inhibitory effects"}
    ]},
    {"compound": "COc1ccc(Br)cc1S(=O)(=O)Nc1ccc(F)c(-n2c(=O)c3cnc(N)nc3n(C)c2=O)c1F", "note": "[Example 51, N-(3-(7-amino-1-methyl-2,4-dioxo-1,2-dihydropyrimido[4,5-d]pyrimidin-3(4H)-yl)-2,4-difluorophenyl)-5-bromo-2-methoxybenzenesulfonamide]", "values": [
      {"measurement": "inhibitory effect on the phosphorylated GCN2", "setting": "phosphorylated GCN2", "value": "excellent inhibitory effects"},
      {"measurement": "Phospho-GCN2 inhibition", "setting": "phosphorylated GCN2", "value": "◯"},
      {"measurement": "IC50", "setting": "[1]", "value": "100 to 300", "unit": "nM"},
      {"measurement": "inhibitory effect on ATF4 (FIG. 1)", "setting": "ATF4", "value": "excellent inhibitory effects"}
    ]},
    {"compound": "Cn1c(=O)n(-c2c(F)ccc(NS(=O)(=O)c3cc(Cl)cnc3Cl)c2F)c(=O)c2cnc(N)nc21", "note": "[Example 57, N-(3-(7-amino-1-methyl-2,4-dioxo-1,4-dihydropyrimido[4,5-d]pyrimidin-3(2H)-yl)-2,4-difluorophenyl)-2,5-dichloropyridine-3-sulfonamide]", "values": [
      {"measurement": "IC50", "setting": "[2]", "value": "300 to 1000", "unit": "nM"},
      {"measurement": "IC50", "setting": "[3]", "value": "< 100", "unit": "nM"},
      {"measurement": "IC50", "setting": "[1]", "value": "< 100", "unit": "nM"},
      {"measurement": "IC50", "setting": "[4]", "value": "100 to 300", "unit": "nM"}
    ]}
  ]
}
